Laboratory results taken from the METLIN SMRT retention time set (Domingo-Almenara et al. 2019).

Experiment: gradient 5% acetonitrile 3 min, to 50% in 2 min, to 85% in 15 min, held 3 min, 100 µL/min
Conditions: column: Zorbax Extend-C18 2.1 x 50 mm; eluents: water / acetonitrile, 0.1% formic acid
How it was run: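 Standards, all pure, were combined into mixtures of ~100 molecules and run at 100 μL/min on a Zorbax Extend-C18 column (2.1 × 50 mm, 1.8 μm) with water and acetonitrile, each containing 0.1% formic acid. A coupled quadrupole time-of-flight mass spectrometer operated in positive and negative ionization mode. Retention time values come from computationally picked adduct peaks, each inspected manually.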

| RP-LC retention time | Compound |
| --- | --- |
| 1020 s | CNC(=O)c1c(NC(=O)COc2ccccc2)sc2c1CCC2 |
| 678 s | COc1ccc(CNC(=O)NCCC(O)C(C)(C)C)cc1 (stereo not given) |
| 1050 s | COc1ccccc1-c1nc(Cn2nnc(-c3nc(-c4cccs4)no3)c2C)c(C)o1 |
| 633 s | CN(C(=O)Cn1c(=O)oc2ccccc21)C1CCc2nn(C)c(=O)n2CC1 (stereo not given) |
| 769 s | CCNC(=O)CN1C(=O)CCCc2cc(S(=O)(=O)N3CCC(C)CC3)ccc21 |
| 705 s | COC(=O)c1cnc2nc(C)ccc2c1Nc1ccc(Cl)cc1 |
| 716 s | CCN(CC)C(=O)C1C(=O)NC2(C)CC1c1ccccc1O2 (stereo not given) |
| 717 s | CCOc1cc(CNc2ccc3[nH]c(=O)[nH]c3c2)cc(Br)c1OCC |
| 638 s | Cc1cc(C)n(CCNC(=O)c2ccc3nsnc3c2)n1 |
| 1190 s | COc1ccc(-c2noc(-c3nnn4c3COC(c3ccc(C)cc3C)C4)n2)cc1OC (stereo not given) |
| 616 s | Cc1ccsc1C(=O)NCc1ccc2c(c1)ncn2C(C)C |
| 1090 s | COc1nn(C)cc1C(=O)Nc1nc(-c2ccc3c(c2)CCCC3)cs1 |
| 911 s | CCOc1cccc(-c2noc(Cn3ccn(-c4ccccc4C)c(=O)c3=O)n2)c1 |
| 717 s | CCOc1ccc(NS(=O)(=O)c2cc(-c3[nH]ncc3C(=O)N3CCCC3)oc2C)cc1 |
| 570 s | CN1CCN(C(=O)C2CCCN(c3ncnc4c3nc3n4CCCCC3)C2)CC1 (stereo not given) |
| 812 s | CCC(C)NC(=O)N1CC(c2nc(CCOCc3ccccc3)no2)C1 (stereo not given) |
| 664 s | O=C(c1ccc(Cl)s1)N1CCC(n2cnnc2C2CC2)CC1 |
| 753 s | Cc1ccc(CNC(=O)Cn2nc3c4ccc(Cl)cc4ncn3c2=O)cc1 |
| 552 s | CN1C(=O)[C@H]2CN(Cc3cccc4[nH]ccc34)C[C@H]2C1=O |
| 684 s | Cc1sc2ccn(CC(C)C)c(=O)c2c1C(=O)NCCN1CCCCCC1 |
| 1360 s | CSc1ccc(-c2noc(-c3nnn4c3COC(c3ccc(C)cc3C)C4)n2)cc1 (stereo not given) |
| 907 s | Cc1ccccc1C(=O)N1CC(C(=O)NCC(C)C)C(c2cccc(C(F)(F)F)c2)C1 (stereo not given) |
| 595 s | Cc1cc(S(=O)(=O)N2CCN(C3CCN(C)C3=O)CC2)ccc1Cl (stereo not given) |
| 608 s | CS(=O)(=O)NCC1CCN(C(=O)c2ccccc2F)CC1 |
| 542 s | CCCNC(=O)c1nc(C)n(C2CCN(S(C)(=O)=O)CC2)c1C |

| RP-LC retention time | Compound |
| --- | --- |
| 774 s | Fc1ccc(C(c2nnc(-c3ccccc3Cl)o2)N2CCN(c3ccccn3)CC2)cc1 (stereo not given) |
| 848 s | COc1cc(NC(=O)N2CCCC2c2cccc(F)c2)cc(OC)c1OC (stereo not given) |
| 579 s | Cc1cc(C)n(CCC(=O)NC2CCN(c3ccc(=O)[nH]n3)C2)n1 (stereo not given) |
| 831 s | CC(=O)CC(=O)Nc1ccc(Cl)c(C(F)(F)F)c1 |
| 632 s | COc1ccc(C(=O)NCc2ccc3c(c2)ncn3C(C)C)cc1F |
| 643 s | Cn1c(C(=O)NCc2ccccc2Cl)cc2ccncc21 |
| 862 s | Cn1c(=O)c2cc(C(=O)Nc3ccccc3)cnc2n(-c2ccccc2)c1=O |
| 943 s | CCc1ccc(NC(=O)Cn2nc3c(Oc4cc(C)cc(C)c4)nccn3c2=O)cc1 |
| 765 s | CC(C)CCNC(=O)N1CCN(c2ncccc2-c2nnc(C3CC3)o2)CC1 |
| 632 s | O=C(CS(=O)Cc1ccco1)NC/C=C\COc1cc(CN2CCCCC2)ccn1 (stereo not given) |
| 658 s | COc1ccccc1/C=C/c1nc(C#N)c(NCCCN(C)C)o1 |
| 596 s | CCN1CCN(c2nc(F)c3c(c2F)S(=O)(=O)CCN3CC2CCCO2)CC1 (stereo not given) |
| 970 s | CC1Oc2ccc(-c3csc(NC(=O)c4ccccc4)n3)cc2N(C)C1=O (stereo not given) |
| 864 s | COC(=O)C1=CN(c2ccc(Cl)cc2)c2ccccc2S1(=O)=O |
| 683 s | CCC(CO)NCc1ccc(-c2cccc(Cl)c2C)o1 (stereo not given) |
| 938 s | COc1cccc(-c2noc(Cn3cnc4c(oc5ccccc54)c3=O)n2)c1 |
| 641 s | CCOC(=O)CNC(=O)N1CCC(n2c(-c3ccc(F)cc3)nc3cccnc32)C1 (stereo not given) |
| 793 s | Cc1ccc2c(c1)N(S(C)(=O)=O)CCC(C(=O)NCc1ccco1)O2 (stereo not given) |
| 867 s | O=C(NC1CCCC1)c1cn(-c2cc(-c3nc(C4CC4)no3)ccn2)cn1 |
| 721 s | CC(C)c1ccc(S(=O)(=O)N2CCc3c(c(CN4CCCC4)nn3C)C2)cc1 |
| 703 s | CCOC(=O)C1CCN(C(=O)C2CN(C(=O)c3ccncc3)CC23CCCCC3)CC1 (stereo not given) |
| 580 s | CN1CCN(S(=O)(=O)c2ccc(Cl)c3ccccc23)CC1 |
| 662 s | O=C(Nc1ccccc1)Nc1c(-c2ccc(F)cc2)nc2ccccn12 |
| 682 s | COc1ccc(-c2nc3n(n2)C2(CCCCC2)[C@@H]2CCCC[C@@H]2N3C(=O)C2CC2)cc1 |

Second part, the compound before the results:

| Compound | RP-LC retention time |
| --- | --- |
| Cc1cc(C)c2[nH]c3c(c(=O)c2c1)CN(CC(=O)NCc1ccc2c(c1)OCO2)CC3 | 620 s |
| CC1(C(=O)NCc2ccc(F)cc2)CCCN(C(=O)Nc2ccccc2Br)C1 (stereo not given) | 955 s |
| COc1ccccc1NC(=O)N1CCCC1c1nc(-c2ccccc2C)no1 (stereo not given) | 1080 s |
| CCC1Oc2ccc(S(=O)(=O)N3CCC(C(=O)NCc4ccc(Cl)cc4)CC3)cc2NC1=O (stereo not given) | 887 s |
| CN(CCc1noc(-c2ccccc2)n1)C(=O)Nc1cccc(Br)c1 | 977 s |
| CCOc1ccccc1CN1CCn2c(nnc2[C@@H]2C[C@@H](O)CN2Cc2cccnc2)C1 | 581 s |
| Cc1ccc(C)c(-c2coc(-c3ccc(NC(=O)CC(C)C)cc3)n2)c1 | 1260 s |
| CNC(=O)c1cnn(-c2ccc(-c3nc(C(C)C)no3)cn2)c1C | 780 s |
| Cc1cccc(NC(=O)Nc2ccc3nnc(C)n3c2)c1 | 747 s |
| COc1ccc2c(c1)CCc1sc(NC(=O)c3ccc(C)cc3)nc1-2 | 1150 s |
| Cc1ccccc1OCC(=O)Nc1ccc2c(c1)Sc1ncccc1C(=O)N2C(C)C | 972 s |
| CCC(C(=O)NCCCN1CCCC1)n1nc(C)c2nn(-c3ccccc3)c(C)c2c1=O (stereo not given) | 645 s |
| CCCn1c(=O)c2cc(C(=O)N3CCN(c4ccccc4)CC3)nn2c2ccccc21 | 1030 s |
| O=C(Cn1ncccc1=O)N1CCN(c2ccc(-c3ccccn3)nn2)CC1 | 537 s |
| CCN1c2ccc(F)cc2C(=O)NC12CCN(C(=O)c1cc(OC)cc(OC)c1)CC2 | 782 s |
| CCCN1C(=O)COc2ccc(-c3noc(Cc4cccc(OC)c4)n3)cc21 | 1080 s |
| O=C1NCCCCCN(C(=O)Nc2ccccc2F)[C@H]2CCC[C@@H]12 | 734 s |
| O=C(Cn1cccc1-c1nc(-c2ccc3c(c2)OCO3)no1)N1CCN(c2ccccc2)CC1 | 1070 s |
| CCc1nc2c(NC(=O)c3ccc(C(F)(F)F)cc3)cccn2n1 | 957 s |
| COCCNC(=O)c1c(C)sc2ccn(Cc3ccc(F)cc3)c(=O)c12 | 749 s |
| COCCn1cnc2c(-c3ccccc3)cn(CC(=O)NC3CCCC3)c2c1=O | 837 s |

| Compound | RP-LC retention time |
| --- | --- |
| CCOC(=O)c1[nH]c(C)c(CCC(=O)N2CCCC(C(=O)N3CCCCCC3)C2)c1C (stereo not given) | 800 s |
| Cc1ccc2nc(C(=O)NCc3ccc4c(c3)OCO4)cn2c1 | 628 s |
| Cc1ccc(C)c(Nc2c(-c3cc(Br)ccc3O)nc3ncccn23)c1 | 1100 s |
| O=S(=O)(c1cc(-c2nnc(C3CCCC3)o2)co1)N1CCN(C2CCCCC2)CC1 | 715 s |
| CCOC(=O)N1CCN(C(=O)C2CN(c3nc4ccc(OC)cc4s3)C2)CC1 | 650 s |
| Fc1cccc2sc(NCc3ccccn3)nc12 | 594 s |
| C[C@H]1CN(C(=O)Nc2ccccc2Cl)C[C@@H]1c1nc(-c2ccncc2)no1 | 854 s |
| CCOCCCNC(=O)Cn1nc(C)c2nn(-c3ccc(Cl)cc3)c(-n3cccc3)c2c1=O | 898 s |
| CCOc1ccc2ncc(C(=O)c3ccc(C)cc3)c(N3CCN(CC)CC3)c2c1 | 622 s |
| Cc1cc(N2CCN(C)CC2)nc2ccc(NC(=O)Nc3cccc(Cl)c3)cc12 | 590 s |
| Cc1ccc(CC(=O)N2CCC3(C2)C(=O)N(C)c2ccccc23)cc1 (stereo not given) | 850 s |
| COc1cccc(N2CCN(C(=O)C3CCN(c4cnc5nccnc5c4)CC3)CC2)c1 | 728 s |
| CCOC(=O)c1nc(Nc2ccc(OC)c(OC)c2)c2ccccc2n1 | 736 s |
| COc1ccccc1Cc1nc(C2CC(=O)N(c3ccc(F)c(Cl)c3)C2)no1 (stereo not given) | 1020 s |
| Cc1cccc(OCC(=O)c2ccc3c(c2)N(C(C)C(=O)N2CCOCC2)C(=O)CO3)c1C (stereo not given) | 877 s |
| Cc1ccc(-c2ccc(=O)n(C(C)C(=O)O)n2)cc1 (stereo not given) | 684 s |
| O=C(Nc1ccc(F)cc1F)Nc1nccn(-c2ccc(F)cc2)c1=O | 942 s |
| CCOC(=O)c1cccc(NC(=O)c2sccc2S(=O)(=O)N(C)c2ccc(OCC)cc2)c1 | 1220 s |
| CCn1nc(C)c(CCNC(=O)CCCn2c3ccccc3c3cnn(C)c(=O)c32)c1C | 698 s |
| CNC(=O)c1sc(Nc2ccc(Cl)cn2)nc1C | 687 s |
